# Measurements reported in patent US20100056431A1, “MEDICAL USES” (priority 2006, published 2010).
# “Also recorded” adds a separate entry of the source.
# Tests used:
# phosphorylated MAPK = assay: Competitive inhibition of LL-37 on Heregulin-induced MAPK phosphorylation in MCF7 cells (Western blot); assay type: cell-based, human; details: Heregulin 2 ng/ml
# Experimental: Heregulin (2 ng/ml) was added to the breast cancer line MCF7, which produces virtually no LL-37 on its own, together with LL-37 (2 μM) and LL-25 at concentrations as indicated. In the control experiments, the solvent (PBS), or LL-37, LL-25 or heregulin (HRG) were added as the only substrates. The quantitative evaluation of triplicate measurements is shown together with the Western blot of one of the triplicates.
# ZR75-1 ells were grown in Optimem and 10% FCS, and plated in 12-well plates at 100 000 cells/well, corresponding 70% confluency. After reattachment, cells were starved for 48 hours in DMEM, no FCS. Test substrate dissolved in 50 μl PBS were added to the medium, and cells were incubated for 20 min. […] The signal was captured in a CCD camera (Fuji, Tokyo, Japan) for 1 min, and evaluated by Image Gauge Software. For quantification, the signals were normalized against the Ponceau S staining that had been scanned in and quantified using the same software.
# In a further experiment, Heregulin (2 ng/ml) was added to the breast cancer line MCF7, which produces virtually no LL-37 on its own, together with exogenous LL-37 (2 μM) and LL-25 at concentrations as indicated. […] The quantitative evaluation of triplicate measurements is shown together with the Western blot of one of the triplicates.
# phosphorylated MAPK 1/2 = assay: Heregulin-induced MAPK phosphorylation in ZR75-1 cells (Western blot); assay type: cell-based, human; details: ZR75-1 cells (LL-37 expressing), Heregulin 2 ng/ml, 20 min
# Experimental: ZR75-1 cells were treated for 20 min with Heregulin (2 ng/ml), LL-25 or LL-37 or in combination as indicated. Protein extracts were analysed by Western blot analysis against phosphorylated MAPK.
# ZR75-1 ells were grown in Optimem and 10% FCS, and plated in 12-well plates at 100 000 cells/well, corresponding 70% confluency. After reattachment, cells were starved for 48 hours in DMEM, no FCS. Test substrate dissolved in 50 μl PBS were added to the medium, and cells were incubated for 20 min. The stimulation was stopped by washing the cells with ice-cold PBS containing 1 mM NaF, 100 μM Na3VO4, and 2 mM PMSF, and then lysed in 300 μl SDS lysis buffer containing the inhibitors as above. Proteins were separated in an 8% gel, and blotted to nitrocellulose filters according to standard conditions. Filters were reversibly stained with 3% Ponceau S, blocked with 4% NFDM in TBS/0.1% Tween20, and incubated o.n. with the primary antibody. For detection of phosphorylated MAPK 1/2 (pThr 202/pTyr 204), a monoclonal antibody (Cell Signaling Inc) was used at 1/2000. […] The signal was captured in a CCD camera (Fuji, Tokyo, Japan) for 1 min, and evaluated by Image Gauge Software. For quantification, the signals were normalized against the Ponceau S staining that had been scanned in and quantified using the same software.
# HaCaT cells [1] = assay: LL-37 peptide treatment of epithelial cells, proliferation by [3H]-Thymidine incorporation; assay type: cell-based, human; details: serum starved 72 hours, LL-37 10 μg/ml, DMEM+5% FCS, versus non treated control
# Experimental: A spontaneously immortalised human keratinocyte cell line (HaCaT) ^19 was cultured in DMEM (Dulbecco's modified Eagle's medium, Gibco BRL, Life Technologies, Scotland) supplemented with 10% FCS (fetal calf serum, Hy-Clone, Boule Nordic AB Huddinge, Sweden) and antibiotics (PEST=penicillin 50 U/l and streptomycin […], Gibco BRL). Cells were harvested at 70% confluence and seeded in 96-well plates, 2000 cells in 100 μl medium (DMEM+10% FCS and PEST). After 12 hours, medium was changed to serum free medium (DMEM+PEST) and cells were synchronized in G0/G1 by serum starvation for 72 hours and then treated with 100 μl of medium (DMEM+5% FCS+PEST) containing synthetic biologically active LL-37 peptide at 10 μg per ml. Cells treated with only DMEM+5% FCS and PEST served as control. The experiments were performed in quadruplicates. Cell proliferation was evaluated by [^3H]-Thymidine incorporation. Cells were treated with 1 μCi/well of [^3H]-Thymidine (20.00 Ci/mmol, Perkin Elmer Life Sciences Inc. Boston, Mass.) during 12 hours and harvested (Harvester 96, Tomtec, Orage, Conn.) onto a glass fiber filter (Wallac Oy Turku, Finland). The incorporation of [^3H]-Thymidine was determined using a liquid scintillation counter (Microbeta Pluss, Wallac Sveriges AB). The experiment was repeated twice in 6 replicates.
# [2] = Antibacterial assay of synthetic LL-37 peptide
# Excerpt: LL-37 peptide was synthesised and purified by HPLC to a purity of 98% (PolyPeptide Laboratories A/S, Hillerød, Denmark). Biological activity of the peptide was confirmed in an antibacterial assay ^18.
# ERK1/2 = assay: Assay of phosphorylated ERK1/2 in LL-37 treated HaCaT cells (Western blot); assay type: cell-based, human; details: LL-37 10 μg/ml, 48 hours, 1% or 5% FCS
# Experimental: HaCaT cells were seeded at 10% confluence and kept in DMEM with 0.2% FCS for 36 hours. For the next 48 hours, cells were cultured in DMEM with 1% or 5% FCS respectively, and in presence or absence of LL-37 at 10 μg/ml, with daily changes of medium. EGF at 10 ng/ml served as positive control. The expression of phosphorylated ERK 1/2 was evaluated by Western blot analysis with a mouse monoclonal antibody (Cell Signaling Technology, Beverly Mass.).
# HaCaT cells [3] = assay: Pertussis toxin assay (LL-37 induced HaCaT cell proliferation); assay type: cell-based, human; details: pertussis toxin 20 ng/ml preincubated 24 h before LL-37 at 5 or 10 μg per ml, data not shown
# Experimental: To assess the involvement of FPRL1 in mediating the stimulation of epithelial cell proliferation induced by hCAP18/LL-37, HaCaT cells were treated with the G-protein-coupled receptor inhibitor pertussis toxin. Cells were preincubated with pertussis toxin (Sigma-Aldrich, Switzerland) 24 h before the LL-37 treatment in a final toxin concentration of 20 ng/ml. Medium was changed 48 hours after cell seeding and the HaCaT cells were treated with 100 μl of medium (DMEM+5% FCS and PEST) containing synthetic biologically active LL-37 peptide at 5 or 10 μg per ml respectively. Cells treated with only DMEM+5% FCS and PEST served as control.
substance,measurement,setting,value
"LLGDFFRKSKEKIGKEFKRIVQRIK (listed as Homo sapiens) [LL-25, N-terminal 25 amino acids of the C-terminal LL-37 peptide derived from human cathelicidin antimicrobial protein hCAP18]",blocking of the endogenous LL-37 contribution to MAPK activation through HRG,phosphorylated MAPK,can significantly be blocked by LL-25
same,inhibition of LL-37 on Heregulin-induced MAPK phosphorylation,"phosphorylated MAPK; exogenous LL-37 2 μM, LL-25 at varied concentrations","competitive and highly efficient inhibitor to LL-37, even at 10% of the concentration of LL-37"
same,effect on MAPK phosphorylation through Heregulin,phosphorylated MAPK 1/2,inhibits MAPK phosphorylation
"LLGDFFRKSKEKIGKEFKRIVQRIKDFLRNLVPRTES (listed as Homo sapiens) [LL-37, C-terminal peptide of human cathelicidin antimicrobial protein hCAP18; synthesised, HPLC purity 98%]",cell proliferation ([3H]-Thymidine incorporation),HaCaT cells [1],significantly increased cell proliferation; also recorded: significant increase in cell proliferation
same,biological activity in antibacterial assay,[2],confirmed
same,activation of ERK1/2 (phosphorylated ERK1/2),ERK1/2,no significant activation of ERK1/2
pertussis toxin,suppression of LL-37 stimulated proliferation by pertussis toxin pretreatment,HaCaT cells [3],approximately 50%
